Laboratory results: PubChem BioAssay (NCI)
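Results reflect a 48-hour exposure of cells in 96-well plates to compound at five concentrations. GI50 marks 50% less growth. At the TGI there is no net growth.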

Columns and labels:
Assay in all cases: NCI tumour cell line growth inhibition, 48 h
K-562 leukemia = system: K-562 leukemia
RXF 393 renal = system: RXF 393 renal
CAKI-1 renal = system: CAKI-1 renal
MOLT-4 leukemia = system: MOLT-4 leukemia
SF-539 CNS = system: SF-539 CNS
HOP-92 NSCLC = system: HOP-92 NSCLC
OVCAR-5 ovarian = system: OVCAR-5 ovarian
TK-10 renal = system: TK-10 renal
A498 renal = system: A498 renal
CCRF-CEM leukemia = system: CCRF-CEM leukemia

SMILES | TGI (K-562 leukemia) [µM] | TGI (RXF 393 renal) [µM] | TGI (CAKI-1 renal) [µM] | TGI (MOLT-4 leukemia) [µM] | TGI (SF-539 CNS) [µM] | TGI (HOP-92 NSCLC) [µM] | TGI (OVCAR-5 ovarian) [µM] | TGI (TK-10 renal) [µM] | TGI (A498 renal) [µM] | TGI (CCRF-CEM leukemia) [µM] | GI50 (CAKI-1 renal) [µM] | GI50 (A498 renal) [µM] | GI50 (SF-539 CNS) [µM] | GI50 (CCRF-CEM leukemia) [µM] | GI50 (OVCAR-5 ovarian) [µM] | GI50 (TK-10 renal) [µM]
COc1c(-c2cc(C)c(Cl)c(=O)[nH]2)c(O)c(OC)c2occc12 | > 100 | > 100 | > 100 | > 100 | > 100 | > 100 | > 100 | > 100 | – | – | – | – | – | – | – | –
CC1(CCCC2(C)CCNC2=O)OCCO1 (stereo not given) | > 10 | > 10 | > 10 | > 10 | > 10 | – | > 10 | > 10 | > 10 | > 10 | – | – | – | – | – | –
N#CCCNCCN(CCN(C(=O)Nc1ccccc1)c1ccccc1)C(=O)Nc1ccccc1 | > 100 | > 100 | – | > 100 | – | > 100 | > 100 | > 100 | > 100 | > 100 | – | – | – | – | – | –
CC(=O)Nc1ccc2c(C(=O)O)c(C)c(=O)[nH]c2n1 | > 100 | > 100 | > 100 | > 100 | > 100 | 56 | > 100 | > 100 | – | – | – | – | – | – | – | –
COc1ccc(-c2oc3ccc(C)cc3c(=O)c2O)cc1 | – | > 100 | > 100 | > 100 | > 100 | > 100 | > 100 | > 100 | > 100 | > 100 | – | – | – | – | – | –
COc1ccc(C2SC(N)=Nc3c2c(C)nn3C(=O)c2ccncc2)cc1 (stereo not given) | > 100 | > 100 | – | > 100 | > 100 | > 100 | > 100 | > 100 | > 100 | > 100 | – | – | – | – | – | –
COC(=O)C1=C(C)N2CCCOC2(C)C(C(=O)OC)C1c1cccc(Cl)c1 (stereo not given) | > 100 | > 100 | 92.5 | 45.1 | 93.8 | 73.9 | – | > 100 | – | > 100 | – | – | – | – | – | –
O=[N+]([O-])c1ccc2c(c1)nc(Cc1ccccc1)n2C[C@@H]1CCCN2CCCCC12 (stereo not given in full) | 49.1 | 59.6 | > 100 | 47.6 | – | > 100 | > 100 | > 100 | 33.2 | 50.2 | – | – | – | – | – | –
COC12C=C/C(=C(/C(=O)OCc3ccncn3)C(=O)CCCCCCCCC3(OC)C=C/C(=C(/C(=O)OCc4ccncn4)C(=O)CCCCCCCC1)O3)O2 | – | – | 2.21 | – | 2.66 | – | 4.81 | 2.4 | 0.833 | 1.55 | 0.349 | 0.252 | 0.354 | 0.251 | 0.334 | 0.395
Cc1nc2c(cc1C(=O)NN)c(=O)n(C)c(=O)n2C | > 100 | > 100 | > 100 | > 100 | – | – | > 100 | > 100 | – | > 100 | – | – | – | – | – | –
COc1ccc2c(c1)OCC1(O)Cc3ccccc3OC21 (stereo not given) | > 100 | – | > 100 | > 100 | > 100 | > 100 | > 100 | > 100 | > 100 | > 100 | – | – | – | – | – | –
CC(C)CC(=O)NC(Nc1ccc(S(=O)(=O)Nc2ncccn2)cc1)(C(F)(F)F)C(F)(F)F | > 100 | > 100 | > 100 | > 100 | > 100 | > 100 | > 100 | – | – | > 100 | – | – | – | – | – | –
CN(C)CCCn1c(Cc2ccccc2)nc2cc(C(F)(F)F)ccc21 | 47 | 67.8 | 51.1 | 48.3 | – | 92 | > 100 | 98.4 | 34.6 | 40.3 | – | – | – | – | – | –
CC(=O)NC1(C)CCC(C(C)(C)NC(C)=O)CC1 (stereo not given) | > 100 | > 100 | > 100 | > 100 | > 100 | – | > 100 | > 100 | > 100 | > 100 | – | – | – | – | – | –
COc1ccc2oc(S(=O)(=O)N3CC(CCl)c4ccc([N+](=O)[O-])cc43)cc2c1 (stereo not given) | 0.285 | – | 0.239 | > 100 | 0.308 | > 73.8 | > 100 | > 55.2 | 2.82 | > 100 | – | – | – | – | – | –
CCNc1nc(N)c(C(=O)c2ccc(Cl)cc2)s1 | > 100 | 53.5 | – | > 100 | > 100 | > 100 | > 100 | 54.4 | 70.3 | 22.6 | – | – | – | – | – | –
C1=C[C@@H]2c3ccc4cnccc4c3NC[C@@H]2C1 | > 100 | > 100 | – | > 100 | > 100 | > 100 | > 100 | > 100 | > 100 | > 100 | – | – | – | – | – | –
CC1(C)CCC[C@]2(C)[C@@H]1CC[C@@]13O[C@@H]1C1=C(CO)C(=O)O[C@]14O[C@@H]4[C@@H]23 | > 55.2 | 25.2 | 36.4 | > 100 | 37.6 | 29.3 | 31.8 | 38 | 32.9 | – | – | – | – | – | – | –
O=C(O)CC(NC(=O)Nc1ccc([N+](=O)[O-])cc1)C(=O)Nc1ccc([N+](=O)[O-])cc1 (stereo not given) | > 100 | > 100 | > 100 | > 100 | > 100 | – | > 100 | > 100 | > 100 | > 100 | – | – | – | – | – | –
CC(C)OC(=O)c1ccc(NCC2=CC(=O)C=CC2=O)cc1Cl | – | 47.5 | 6.19 | > 30.7 | 37.5 | 14.4 | 70.1 | 30 | 43.2 | – | – | – | – | – | – | –
O=C1C=Cc2c(Cl)sc(Cl)c21 | 3.21 | 4.28 | 4.57 | – | – | – | 24.8 | 4.39 | 16.1 | 1.36 | – | – | – | – | – | –
COc1cc(Oc2nc3ccccc3nc2C(=O)O)cc(OC)c1OC | > 100 | > 100 | > 100 | > 100 | – | > 100 | > 100 | > 100 | > 100 | > 100 | – | – | – | – | – | –
CCOC(=O)C(=[N+]=[N-])C(=O)C[N+]12CCN(CC1)CC2 | > 100 | > 100 | > 100 | > 100 | – | > 100 | > 100 | > 100 | > 100 | > 100 | – | – | – | – | – | –
